The values that follow come from patent US20230257372A1 (CHONG KUN DANG PHARMACEUTICAL CORP., priority 2020, published 2023).

One assay deals with T1, human recombinant HDAC1 (Homo sapiens, UniProt Q13547).
T1 construct: purchased Enzo Life Science, Inc. BML-SE456
Kind of assay: HDAC1 enzyme activity inhibition (HDAC Fluorimetric Drug Discovery Kit). In kind it is biochemical. As to conditions: human recombinant HDAC1; IC50 calculated with GraphPad Prism; read-out: HDAC1. The procedure, abridged:
(§1)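 Fluorimetric deacetylase read-out: after 30 min with Developer II following a 60 min, 30° C reaction of recombinant enzyme ([…]) with 10 μM substrate, across five-fold serial compound dilutions.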

In another assay the target is T2, human recombinant HDAC6 (Homo sapiens, UniProt Q9UBN7).
T2 construct: purchased Calbiochem Inc. 382180
T2 sequence (Q9UBN7 1-1215): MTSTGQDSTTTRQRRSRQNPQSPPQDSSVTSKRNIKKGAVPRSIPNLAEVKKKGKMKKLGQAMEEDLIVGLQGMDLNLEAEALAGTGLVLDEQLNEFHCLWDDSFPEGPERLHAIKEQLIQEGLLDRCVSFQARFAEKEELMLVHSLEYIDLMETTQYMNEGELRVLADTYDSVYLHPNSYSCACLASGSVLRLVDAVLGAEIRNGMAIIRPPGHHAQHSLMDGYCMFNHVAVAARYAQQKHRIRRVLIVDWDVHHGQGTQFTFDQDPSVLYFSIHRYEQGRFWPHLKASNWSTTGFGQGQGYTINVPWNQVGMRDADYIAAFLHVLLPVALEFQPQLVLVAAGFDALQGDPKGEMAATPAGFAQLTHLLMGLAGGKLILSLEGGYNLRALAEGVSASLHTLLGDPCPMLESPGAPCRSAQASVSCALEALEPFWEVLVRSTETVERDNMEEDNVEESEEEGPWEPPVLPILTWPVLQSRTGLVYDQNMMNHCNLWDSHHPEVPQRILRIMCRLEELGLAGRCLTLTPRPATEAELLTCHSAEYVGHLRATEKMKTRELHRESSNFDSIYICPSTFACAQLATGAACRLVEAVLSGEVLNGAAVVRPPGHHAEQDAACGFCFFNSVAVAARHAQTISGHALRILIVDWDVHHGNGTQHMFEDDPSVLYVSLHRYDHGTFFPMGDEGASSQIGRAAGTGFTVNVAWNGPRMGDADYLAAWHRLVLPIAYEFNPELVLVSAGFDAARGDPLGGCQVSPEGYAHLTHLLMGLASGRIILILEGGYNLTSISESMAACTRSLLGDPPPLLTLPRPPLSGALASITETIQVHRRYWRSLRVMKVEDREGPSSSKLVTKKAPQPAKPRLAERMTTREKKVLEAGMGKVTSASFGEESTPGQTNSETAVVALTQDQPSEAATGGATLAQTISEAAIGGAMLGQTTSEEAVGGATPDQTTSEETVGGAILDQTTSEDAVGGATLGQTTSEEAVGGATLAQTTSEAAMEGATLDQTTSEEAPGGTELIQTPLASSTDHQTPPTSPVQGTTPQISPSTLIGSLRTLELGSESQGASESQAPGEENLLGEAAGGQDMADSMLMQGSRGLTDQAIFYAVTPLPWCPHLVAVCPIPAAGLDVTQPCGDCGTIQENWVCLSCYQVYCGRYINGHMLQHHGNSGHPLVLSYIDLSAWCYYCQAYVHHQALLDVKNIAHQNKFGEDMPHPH
The experiment in a line: HDAC6 enzyme activity inhibition (HDAC Fluorimetric Drug Discovery Kit). As to conditions: for HDAC6 selectivity (fold): HDAC1 IC50 / HDAC6 IC50; for IC50: human recombinant HDAC6, IC50 calculated with GraphPad Prism. It is filed as biochemical. The procedure, abridged: as §1

Assay [1] relates to hippocampal neurons from a Sprague-Dawley (SD) rat fetus. The experiment in a line: Effect of HDAC6-specific inhibitor on axonal transport of mitochondria in amyloid-beta treated neurons. In kind it is cell-based. As to conditions: transport velocity of mitochondria in neuronal axon after normalization; vehicle = 100%, amyloid beta treatment group = 0%; compound treatment for three hours. The procedure, abridged:
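Rat E17-18 hippocampal neurons exposed to amyloid-beta fragments […]; after 24 h (day 8 in vitro) compound added for 3 h, mitochondria stained with MitoTracker Red CMXRos. Confocal imaging every 1 s for 1 min gave per-mitochondrion velocity, normalized vehicle = 100%, amyloid-beta = 0%.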

Molecules are shown by their SMILES. A value given as a limit tells only on which side of the number the result lay.

T1 sequence (Q13547 whole entry): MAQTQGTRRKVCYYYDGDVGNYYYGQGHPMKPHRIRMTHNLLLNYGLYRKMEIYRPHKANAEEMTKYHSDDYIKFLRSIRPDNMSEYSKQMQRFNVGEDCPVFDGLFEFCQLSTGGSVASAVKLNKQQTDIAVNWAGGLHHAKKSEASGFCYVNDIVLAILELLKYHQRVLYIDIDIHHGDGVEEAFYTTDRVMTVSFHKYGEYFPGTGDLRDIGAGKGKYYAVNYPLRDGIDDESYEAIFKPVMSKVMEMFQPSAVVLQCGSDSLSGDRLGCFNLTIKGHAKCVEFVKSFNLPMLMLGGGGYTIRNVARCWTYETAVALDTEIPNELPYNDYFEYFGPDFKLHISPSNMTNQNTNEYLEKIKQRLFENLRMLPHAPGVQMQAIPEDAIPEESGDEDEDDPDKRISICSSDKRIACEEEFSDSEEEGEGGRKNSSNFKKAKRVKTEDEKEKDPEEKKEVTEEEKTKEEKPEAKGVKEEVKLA

For `FC(F)c1nnc(-c2ccc(Cn3nnc(-c4cccs4)n3)nc2)o1` [Compound 4232, 2-(difluoromethyl)-5-(6-((5-(thiophen-2-yl)-2H-tetrazol-2-yl)methyl)pyridin-3-yl)-1,3,4-oxadiazole], at human recombinant HDAC1, the IC50 is > 50000 nM. On human recombinant HDAC6, the “HDAC6 selectivity (fold)” value was 2232 fold and the IC50 is 22.4 nM. Also, the “Velocity distribution (%)” value in assay [1] is given as “** (**, 50%˜100%)”.

`Cc1cc2ccc(-c3cn(Cc4ccc(-c5nnc(C(F)F)o5)cn4)nn3)cc2[nH]1` [Compound 4287, 2-(difluoromethyl)-5-(6-((4-(2-methyl-1H-indol-6-yl)-1H-1,2,3-triazol-1-yl)methyl)pyridin-3-yl)-1,3,4-oxadiazole]: the IC50 on human recombinant HDAC1 was > 50000 nM. For the same compound, on human recombinant HDAC6, the “HDAC6 selectivity (fold)” value is given as 2092 fold and the IC50 is 23.9 nM. The “Velocity distribution (%)” value in assay [1] was “*** (***, >100%)”.

For `Cc1cc2cc(-c3cn(Cc4ccc(-c5nnc(C(F)F)o5)cn4)nn3)ccc2[nH]1` [Compound 4289, 2-(difluoromethyl)-5-(6-((4-(2-methyl-1H-indol-5-yl)-1H-1,2,3-triazol-1-yl)methyl)pyridin-3-yl)-1,3,4-oxadiazole], the IC50 at human recombinant HDAC1 is > 50000 nM. Also, at human recombinant HDAC6, the “HDAC6 selectivity (fold)” value was 416 fold and the IC50 is 12 nM. Moreover, the “Velocity distribution (%)” value in assay [1] was “*** (***, >100%)”.

For the compound `CC(C)N1CC(N2CCC(c3cccc(-c4cn(Cc5ccc(-c6nnc(C(F)F)o6)cc5F)nn4)c3)CC2)C1` [Compound 4296], the IC50 on human recombinant HDAC1 was > 50000 nM. For the same compound, at human recombinant HDAC6, the “HDAC6 selectivity (fold)” value was 1547 fold and the IC50 is 32.3 nM. The “Velocity distribution (%)” value in assay [1] is on record as “** (**, 50%˜100%)”.

As for `CN1CCN(c2cccc(-c3cn(Cc4ccc(-c5nnc(C(F)F)o5)cc4)nn3)c2)CC1` [Compound 4336, 2-(difluoromethyl)-5-(4-((4-(3-(4-methylpiperazin-1-yl)phenyl)-1H-1,2,3-triazol-1-yl)methyl)phenyl)-1,3,4-oxadiazole], the IC50 at human recombinant HDAC1 was > 50000 nM; on human recombinant HDAC6, 32.4 nM. For the same compound, the “HDAC6 selectivity (fold)” value at human recombinant HDAC6 worked out at 1543 fold. Further, in assay [1], the “Velocity distribution (%)” value is “*** (***, >100%)”.

For the compound `CN1CCN(c2cccc(-c3cn(Cc4ccc(-c5nnc(C(F)F)o5)cc4F)nn3)c2)CC1` [Compound 4337, 2-(difluoromethyl)-5-(3-fluoro-4-((4-(3-(4-methylpiperazin-1-yl)phenyl)-1H-1,2,3-triazol-1-yl)methyl)phenyl)-1,3,4-oxadiazole], the IC50 at human recombinant HDAC1 is > 50000 nM; on human recombinant HDAC6, 23.9 nM. The “HDAC6 selectivity (fold)” value on human recombinant HDAC6 was 2092 fold. Moreover, in assay [1], the “Velocity distribution (%)” value is recorded as “*** (***, >100%)”.

Take `FC(F)c1nnc(-c2ccc(Cn3cc(-c4ccc5cn[nH]c5c4)nn3)cc2)o1` [Compound 4341, 2-(4-((4-(1H-indazol-6-yl)-1H-1,2,3-triazol-1-yl)methyl)phenyl)-5-(difluoromethyl)-1,3,4-oxadiazole]: the IC50 on human recombinant HDAC1 is > 50000 nM. Moreover, on human recombinant HDAC6, the “HDAC6 selectivity (fold)” value stood at 1222 fold and the IC50 was 40.9 nM. For the same compound, the “Velocity distribution (%)” value in assay [1] was “** (**, 50%˜100%)”.

On to `Fc1cc(-c2nnc(C(F)F)o2)ccc1Cn1cc(-c2ccc3cn[nH]c3c2)nn1` [Compound 4342, 2-(4-((4-(1H-indazol-6-yl)-1H-1,2,3-triazol-1-yl)methyl)-3-fluorophenyl)-5-(difluoromethyl)-1,3,4-oxadiazole], for which the IC50 at human recombinant HDAC1 is > 50000 nM; on human recombinant HDAC6 it was 34.4 nM. Besides, the “HDAC6 selectivity (fold)” value at human recombinant HDAC6 is 1453 fold. Moreover, in assay [1], the “Velocity distribution (%)” value is “* (*, 0%˜50%)”.

Regarding `FC(F)c1nnc(-c2ccc(Cn3cc(-c4cccc5[nH]ncc45)nn3)nc2)o1` [Compound 4346, 2-(6-((4-(1H-indazol-4-yl)-1H-1,2,3-triazol-1-yl)methyl)pyridin-3-yl)-5-(difluoromethyl)-1,3,4-oxadiazole], the IC50 at human recombinant HDAC1 was > 50000 nM. Moreover, at human recombinant HDAC6, the “HDAC6 selectivity (fold)” value was 9090 fold and the IC50 is 5.5 nM. Moreover, in assay [1], the “Velocity distribution (%)” value was “*** (***, >100%)”.

On to `FC(F)c1nnc(-c2ccc(Cn3cc(-c4cccc5[nH]ncc45)nn3)cc2)o1` [Compound 4347, 2-(4-((4-(1H-indazol-4-yl)-1H-1,2,3-triazol-1-yl)methyl)phenyl)-5-(difluoromethyl)-1,3,4-oxadiazole], for which the values for the IC50 on human recombinant HDAC1 and on human recombinant HDAC6 were > 50000 nM and 7.3 nM, respectively. The “HDAC6 selectivity (fold)” value on human recombinant HDAC6 turned out to be 6849 fold. Besides, the “Velocity distribution (%)” value in assay [1] is “* (*, 0%˜50%)”.

Turning to `Fc1cc(-c2nnc(C(F)F)o2)ccc1Cn1cc(-c2cccc3[nH]ncc23)nn1` [Compound 4348, 2-(4-((4-(1H-indazol-4-yl)-1H-1,2,3-triazol-1-yl)methyl)-3-fluorophenyl)-5-(difluoromethyl)-1,3,4-oxadiazole], the IC50 at human recombinant HDAC1 is > 50000 nM; on human recombinant HDAC6, 6.8 nM. Besides, on human recombinant HDAC6, the “HDAC6 selectivity (fold)” value is 7352 fold. In addition, the “Velocity distribution (%)” value in assay [1] was “** (**, 50%˜100%)”.

Turning to `Fc1cc(-c2nnc(C(F)F)o2)ccc1Cn1cc(-c2ccc3c(c2)CCN(C2CCC2)C3)nn1` [Compound 4361, 2-(4-((4-(2-cyclobutyl-1,2,3,4-tetrahydroisoquinolin-6-yl)-1H-1,2,3-triazol-1-yl)methyl)-3-fluorophenyl)-5-(difluoromethyl)-1,3,4-oxadiazole], the IC50 on human recombinant HDAC1 is > 50000 nM. Besides, on human recombinant HDAC6, the “HDAC6 selectivity (fold)” value is recorded as 668 fold and the IC50 is 74.8 nM. For the same compound, the “Velocity distribution (%)” value in assay [1] is “** (**, 50%˜100%)”.

On to `Fc1cc(-c2nnc(C(F)F)o2)ccc1Cn1cc(-c2ccc3c(c2)CN(C2CCC2)CC3)nn1` [Compound 4366, 2-(4-((4-(2-cyclobutyl-1,2,3,4-tetrahydroisoquinolin-7-yl)-1H-1,2,3-triazol-1-yl)methyl)-3-fluorophenyl)-5-(difluoromethyl)-1,3,4-oxadiazole], for which, at human recombinant HDAC1, the IC50 is > 50000 nM. Moreover, at human recombinant HDAC6, the “HDAC6 selectivity (fold)” value is 1358 fold and the IC50 is 36.8 nM. In addition, in assay [1], the “Velocity distribution (%)” value is listed as “*** (***, >100%)”.

Consider `FC(F)c1nnc(-c2ccc(Cn3cc(-c4cccc(N5CCN(C6COC6)CC5)c4)nn3)cc2)o1` [Compound 4370, 2-(difluoromethyl)-5-(4-((4-(3-(4-(oxetan-3-yl)piperazin-1-yl)phenyl)-1H-1,2,3-triazol-1-yl)methyl)phenyl)-1,3,4-oxadiazole], for which the IC50 on human recombinant HDAC1 was > 50000 nM; on human recombinant HDAC6 it was 69.9 nM. Also, the “HDAC6 selectivity (fold)” value at human recombinant HDAC6 is recorded as 715 fold. Further, the “Velocity distribution (%)” value in assay [1] was “*** (***, >100%)”.

Take `FC(F)c1nnc(-c2ccc(Cn3cc(-c4cccc(N5CCN(C6CCC6)CC5)c4)nn3)cc2)o1` [Compound 4371, 2-(4-((4-(3-(4-cyclobutylpiperazin-1-yl)phenyl)-1H-1,2,3-triazol-1-yl)methyl)phenyl)-5-(difluoromethyl)-1,3,4-oxadiazole]: on human recombinant HDAC1, the IC50 is > 50000 nM. For the same compound, on human recombinant HDAC6, the “HDAC6 selectivity (fold)” value stood at 917 fold and the IC50 was 54.5 nM. Also, the “Velocity distribution (%)” value in assay [1] is “** (**, 50%˜100%)”.

In the case of `CCN1CCN(c2cccc(-c3cn(Cc4ccc(-c5nnc(C(F)F)o5)cc4F)nn3)c2)CC1` [Compound 4373, 2-(difluoromethyl)-5-(4-((4-(3-(4-ethylpiperazin-1-yl)phenyl)-1H-1,2,3-triazol-1-yl)methyl)-3-fluorophenyl)-1,3,4-oxadiazole], the IC50 at human recombinant HDAC1 is > 50000 nM. On human recombinant HDAC6, the “HDAC6 selectivity (fold)” value came out at 335 fold and the IC50 is 14.9 nM. The “Velocity distribution (%)” value in assay [1] is reported as “*** (***, >100%)”.
